According to patent US20170152258A9, “Substituted Pyridopyrazines as Syk Inhibitors” (HUTCHISON MEDIPHARMA LIMITED, priority 2012, published 2017):

Experiments:
RBL-2H3 cells = assay: IgE-induced Beta-hexosaminidase secretion in RBL-2H3 cells; format: cell-based; conditions: DNP-BSA stimulation
Experimental: For the determination of IgE-induced Beta-hexosaminidase secretion, RBL-2H3 cells (SIBS) are seeded in 96 well plates at 4×10^4 cells per well and incubated in MEM media with 15% FBS and Glutamine ([…]) for 4 hours and sensitized with 0.5 ug/ml of SPE-7 overnight. Cells are washed 3 times with Tyrode's buffer and incubated in the presence or absence of various concentrations of the testing compound for 20 min at 37° C., 5% CO2. Cells are stimulated by adding 10 uL of DNP-BSA solution (150 ng/mL) to each well and incubating for 45 minutes at 37° C., 5% CO2. Then, 45 μL of the supernatant is taken and incubated with 100 μL of 1 mM 4-Nitrophenyl N-acetyl-β-D-glucosaminide (Sigma, Cat. No. N9376), which is diluted in 0.05 M citrate buffer (pH 4.5), for 1.5 hr at 37° C. The reactions are quenched by adding 185 μL of 0.05 M sodium carbonate buffer (pH 10.0). Plates are read at 405 nm on Multiskan (MK 3).

Syk kinase = Syk kinase (Homo sapiens, UniProt P43405); assay: SYK Enzymatic Assay (Z-LYTE Tyr 2 peptide); format: biochemical; conditions: 8 concentrations 1 μM down to 0.0003 μM
Experimental: Syk kinase assay are performed in vitro using Kit-Tyr 2 Peptide (Invitrogen, Cat. No. PV3191) and in a 384-well assay plate. […] The 384-well assay plate (Corning, Cat. No. 3575) is mixed and incubated at room temperature for 1 hour. 10 μL of the Development Solution (prepared by diluting Development Reagent A (Cat. No. PV3297) to 1/32 with Development Buffer (Cat. No. PV3127)) is then added to each well, mixed and incubated at room temperature for another 1 hour. The reactions are then stopped by adding 10 μL of the Stop Reagent (Invitrogen, Cat. No. PV3094), and the plate is read with Wallac 1420 VICTOR^3 Multilabel Counter (PerkinElmer™) at 445 nm and 520 nm fluorescence. All compounds are tested at 8 concentrations (1 μM down to 0.0003 μM) using a 1:3 serial dilution scheme.

[1] = Rattus norvegicus, RBL-2H3, IgE-induced Beta-hexosaminidase secretion
[2] = IgE-induced Beta-hexosaminidase secretion

| SMILES | IC50 (RBL-2H3 cells; [1]) [nM] | IC50 (Syk kinase) [nM] | IC50 (RBL-2H3 cells; [2]) [nM] |
| --- | --- | --- | --- |
| COC1CCN(c2ccc(-c3cc4nccnc4c(OC[C@@H]4CN(S(C)(=O)=O)CCO4)n3)cc2)CC1 [Compound 31] | 56 | 17 |  |
| CN(CC#N)CCS(=O)(=O)N1CCO[C@H](COc2nc(-c3ccc(N(C)C)cc3)cc3nccnc23)C1 [Compound 104] | 127 | 38 |  |
| CN(C)c1ccc(-c2cc3nccnc3c(OC[C@@H]3CN(C(=O)c4ncc[nH]4)CCO3)n2)cc1 [Compound 86] | 616 | 110 |  |
| COc1ccc(-c2cc3nccnc3c(OC[C@@H]3CN(C(N)=O)CCO3)n2)cc1OC [Compound 142, (S)-2-(((7-(3,4-dimethoxyphenyl)pyrido[3,4-b]pyrazin-5-yl)oxy)methyl)morpholine-4-carboxamide] | 950 | 68 |  |
| CC(=O)N(C)Cc1ccc(-c2cc3nccnc3c(OC[C@@H]3CN(S(C)(=O)=O)CCO3)n2)cc1 [Compound 259] | 297 | 54 |  |
| CNC(=O)N1CCO[C@H](COc2nc(-c3ccc(N(C)C)c(C)c3)cc3nccnc23)C1 [Compound 164] | 82 | 66 |  |
| O=S(=O)(C1CC1)N1CCO[C@H](COc2nc(-c3ccc(N4CCOCC4)cc3)cc3nccnc23)C1 [Compound 83] | 92 | 74 |  |
| CS(=O)(=O)N1CCC(c2ccc(-c3cc4nccnc4c(O[C@@H]4CCOC4)n3)cc2)CC1 [Compound 124] | 45 | 33 |  |
| CC(=O)N1CCC(c2ccc(-c3cc4nccnc4c(OC[C@@H]4CN(C(C)=O)CCO4)n3)cc2)CC1 [Compound 54] | 257 | 73 |  |
| Cc1cc(-c2cc3nccnc3c(OC[C@@H]3CNC(=O)C3)n2)ccc1N(C)C [Compound 226] | 60 | 29 |  |
| C[C@@H]1CN(c2ccc(-c3cc4nccnc4c(O[C@@H]4CCOC4)n3)cc2)C[C@H](C)O1 [Compound 229] | 94 | 49 |  |
| CNC(=O)COc1ccc(-c2cc3nccnc3c(OC[C@@H]3CN(S(C)(=O)=O)CCO3)n2)cc1 [Compound 129] | 230 | 50 |  |
| CC(=O)N1CCN(c2ccc(-c3cc4nccnc4c(O[C@@H]4CCCOC4)n3)cc2)CC1 [Compound 177] | 79 | 91 |  |
| CC(=O)N1CCN(c2ccc(-c3cc4nccnc4c(O[C@@H]4CCOC4)n3)cc2)CC1 [Compound 152] | 48 | 33 |  |
| CN(C)c1ccc(-c2cc3nccnc3c(OC[C@@H]3CNC(=O)C3)n2)cc1 [Compound 206, (S)-4-(((7-(4-(dimethylamino)phenyl)pyrido[3,4-b]pyrazin-5-yl)oxy)methyl)pyrrolidin-2-one] | 52 | 72 |  |
| CC(=O)N1CCO[C@H](COc2nc(-c3ccc4c(c3)CCN4C)cc3nccnc23)C1 [Compound 189] | 78 | 61 |  |
| Cc1cc(-c2cc3nccnc3c(OC[C@@H]3CN(S(N)(=O)=O)CCO3)n2)ccc1N(C)C [Compound 188] | 39 | 11 |  |

| SMILES | IC50 (RBL-2H3 cells; [1]) [nM] | IC50 (Syk kinase) [nM] | IC50 (RBL-2H3 cells; [2]) [nM] |
| --- | --- | --- | --- |
| CCC(=O)N1CCO[C@H](COc2nc(-c3ccc(N(C)C)c(C)c3)cc3nccnc23)C1 [Compound 202] | 90 | 26 |  |
| CS(=O)(=O)N1CCO[C@H](COc2nc(-c3ccc(C4(O)CCC4)cc3)cc3nccnc23)C1 [Compound 308] | 97 | 35 |  |
| COc1cc(-c2cc3nccnc3c(OC[C@@H]3CN(S(C)(=O)=O)CCO3)n2)ccc1OCCN(C)C [Compound 126] | 366 | 41 |  |
| CN(C)c1ccc(-c2cc3nccnc3c(OC[C@@H]3CN(S(=O)(=O)c4cccnc4)CCO3)n2)cc1 [Compound 92] | 72 | 76 |  |
| COc1ccc(-c2cc3nccnc3c(OC[C@@H]3CN(S(C)(=O)=O)CCO3)n2)cc1OC [Compound 43] | 37 | 13 |  |
| CCN1CCN(c2ccc(-c3cc4nccnc4c(OC[C@@H]4CN(C(=O)C(F)F)CCO4)n3)cc2)CC1 [Compound 17] | 56 | 32 |  |
| Cn1ncc2cc(-c3cc4nccnc4c(OC[C@@H]4CN(S(C)(=O)=O)CCO4)n3)ccc21 [Compound 105] | 77 | 39 |  |
| N#CC1(c2ccc(-c3cc4nccnc4c(OC[C@@H]4CN(S(N)(=O)=O)CCO4)n3)cc2)CCC1 [Compound 294] | 218 | 51 | 132 |
| c1cnc2c(O[C@@H]3CCOC3)nc(-c3ccc(C4CCOCC4)cc3)cc2n1 [Compound 217] | 68 | 45 |  |
| CNC(=O)N1CCO[C@H](COc2nc(-c3ccc(N(C)C)c(F)c3)cc3nccnc23)C1 [Compound 184] | 62 | 84 |  |
| CC(=O)N1CCN(c2ccc(-c3cc4nccnc4c(OC[C@@H]4CN(S(C)(=O)=O)CCO4)n3)cc2)CC1 [Compound 122] | 73 | 15 |  |
| OC1CCC(Oc2nc(-c3ccc(N4CCOCC4)cc3)cc3nccnc23)CC1 (stereo not drawn) [Compound 1, 4-(7-(4-morpholinophenyl)pyrido[4,3-b]pyrazin-5-yloxy)cyclohexanol] |  | 270 |  |
| CC(Oc1nc(-c2ccc(N(C)C)cc2)cc2nccnc12)C1CN(C(N)=O)CCO1 (stereo not drawn) [Compound 234] |  | 193 |  |
| CNC(=O)N1CCO[C@H](COc2nc(-c3ccc4[nH]ncc4c3)cc3nccnc23)C1 [Compound 204] |  | 126 |  |
| CS(=O)(=O)N1CCO[C@H](COc2nc(-c3ccc(OC(F)F)cc3)cc3nccnc23)C1 [Compound 34] |  | 227 |  |
| CN(C)c1ccc(-c2cc3nccnc3c(OCC3CCCCO3)n2)cc1 (stereo not drawn) [Compound 167] |  | 405 |  |

The remaining compounds from weak to strong by IC50 (Syk kinase), led by results:

| IC50 (RBL-2H3 cells; [1]) [nM] | IC50 (Syk kinase) [nM] | IC50 (RBL-2H3 cells; [2]) [nM] | SMILES |
| --- | --- | --- | --- |
|  | 458 |  | CC(=O)N1CCO[C@H](COc2nc(-c3ccc4c(c3)CC(=O)N4C)cc3nccnc23)C1 [Compound 171] |
|  | 178 |  | CN(C)CCc1ccc(-c2cc3nccnc3c(OC[C@@H]3CN(S(C)(=O)=O)CCO3)n2)cc1 [Compound 272] |
|  | 131 |  | COc1ccc(-c2cc3nccnc3c(OC[C@@H]3CN(S(C)(=O)=O)CCO3)n2)cc1F [Compound 35] |
|  | 109 |  | CC(Oc1nc(-c2ccc(N(C)C)cc2)cc2nccnc12)C1CN(S(C)(=O)=O)CCO1 (stereo not drawn) [Compound 236] |
| 211 | 88 |  | CN(C)c1ccc(-c2cc3nccnc3c(OC[C@@H]3CN(C(=O)N4CCC4)CCO3)n2)cc1 [Compound 199, (S)-azetidin-1-yl(2-(((7-(4-(dimethylamino)phenyl)pyrido[3,4-b]pyrazin-5-yl)oxy)methyl)morpholino)methanone] |
|  | 76 |  | N#CC1(c2ccc(-c3cc4nccnc4c(OC[C@@H]4CN(C(N)=O)CCO4)n3)cc2)CC1 [Compound 275] |
| > 3330 | 72 |  | CC(=O)N1CC(c2ccc(-c3cc4nccnc4c(OC[C@@H]4CN(C(N)=O)CCO4)n3)cc2)C1 [Cmpd 296] |
| 121 | 57 |  | O=C1C[C@H](COc2nc(-c3ccc(N4CCOCC4)cc3)cc3nccnc23)CN1 [Compound 223] |
| 103 | 48 |  | Cc1cc(-c2cc3nccnc3c(OC[C@@H]3CNC(=O)C3)n2)ccc1N1CCOCC1 [Compound 224] |
| 38 | 44 |  | CNS(=O)(=O)N1CCO[C@H](COc2nc(-c3ccc(N(C)C)c(C)c3)cc3nccnc23)C1 [Compound 221] |
| 277 | 43 |  | NS(=O)(=O)N1CCO[C@H](COc2nc(-c3ccc(N4CCCC4)cc3)cc3nccnc23)C1 [Compound 30] |
| 59 | 40 |  | CS(=O)(=O)N1CCO[C@H](COc2nc(-c3ccc(C4(C#N)CC4)cc3)cc3nccnc23)C1 [Compound 274] |
| 88 | 40 |  | CN(C)c1ccc(-c2cc3nccnc3c(OC[C@@H]3CN(C(=O)CC#N)CCO3)n2)cc1 [Compound 76] |
| 33 | 36 |  | CN1CCN(c2ccc(-c3cc4nccnc4c(OC[C@@H]4CN(C(=O)C(F)F)CCO4)n3)cc2)CC1 [Compound 16] |
| 49 | 31 | 71 | CN(C)c1ccc(-c2cc3nccnc3c(OC[C@@H]3CN(C(=O)[C@H]4CCOC4)CCO3)n2)cc1 [Compound 95] |
| 191 | 28 |  | CC1(C)OCc2cc(-c3cc4nccnc4c(OC[C@@H]4CN(C(N)=O)CCO4)n3)ccc21 [Compound 298] |
| 29 | 27 |  | O=C(C(F)F)N1CCO[C@H](COc2nc(-c3ccc(N4CCOCC4)cc3)cc3nccnc23)C1 [Compound 61] |
| 113 | 18 |  | CS(=O)(=O)N1CCN(c2ccc(-c3cc4nccnc4c(OC[C@@H]4CN(S(C)(=O)=O)CCO4)n3)cc2)CC1 [Compound 26] |
| 73 | 16 |  | CC(C)(O)C1CCN(c2ccc(-c3cc4nccnc4c(OC[C@@H]4CN(S(C)(=O)=O)CCO4)n3)cc2)CC1 [Compound 22] |
